Experimental data from US20170190726A9, “PRODRUG FOR RELEASE OF CISPLATIN AND CYCLOOXYGENASE INHIBITOR” (priority 2013, published 2017).

Tests used:
IL-6 = assay: ELISA of IL-6 in LPS-stimulated RAW 264.7 macrophages; assay type: cell-based, mouse
Description: RAW 264.7 cells were plated at a concentration of 10,000 cells/mL in 96 plates and allowed to grow overnight. For preventative anti-inflammatory treatment, Platin-A (10 μM), aspirin (10 μM), cisplatin (10 μM) and an equimolar ratio of cisplatin and aspirin (10 μM each) was incubated with the RAW cells for 6 h. Lipopolysaccharide (LPS) (100 ng/mL) was added and the cells were further incubated for 12 h. For therapeutic anti-inflammatory treatment, LPS (100 ng/mL) was added to the RAW cells and incubated for 6 h. Platin-A (10 μM), aspirin (10 μM), cisplatin (10 μM) and an equimolar ratio of cisplatin and aspirin (10 μM each) was then added to the cells and incubated for 12 h. ELISA was performed on the supernatants against the cytokines interleukin (IL)-6, IL-10, and TNF-α. Briefly, antibody coated plates were blocked with 10% FBS in PBS for 1 h at room temperature followed by 3 washes. RAW cell supernatants were incubated on the plates for 2 h at room temperature. This was immediately followed by washings and sequential incubations with the cytokine-biotin conjugate and streptavidin working solution. Finally, the substrate reagent containing 3,3′,5,5′-tetramethylbenzidine (100 μL) was added to each well, incubated for 15 min, the reaction was stopped by adding 50 μL H2SO4 (0.1 M). The absorbance was recorded at 450 nm using a BioTek Synergy HT well plate reader.

IL-10 = assay: ELISA of IL-10 in LPS-stimulated RAW 264.7 macrophages; assay type: cell-based, mouse; settings: preventive: pretreatment 10 μM 6 h, then LPS 12 h
Description: Chronic inflammation can be important for progression of human cancers, including PCa. Pro-inflammatory cytokines, TNF-α and interleukin (IL)-6, can be important for proliferation, survival, metastasis, and escape from immune surveillance of cancers. Chronic inflammation by activation of toll like receptors (TLRs) on cancer cells creates a tumor micro-environment which impairs the anti-tumor function of the immune system to allow to develop and survive. The cytokines TNF-α and IL-6 are potent activators of NF-κB, a key modulator of inflammation-induced carcinogenesis. Enhanced TNF-α secretion mediates cisplatin nephrotoxicity. The anti-inflammatory cytokine, IL-10 inhibits inflammatory and cytotoxic pathways in cisplatin-induced acute renal injury. […] First, we evaluated the effects of Platin-A, cisplatin, a combination of cisplatin and aspirin, and aspirin on pro-inflammatory cytokines IL-6, TNF-α, and anti-inflammatory IL-10 production in LPS-stimulated RAW 264.7 macrophages. […] To exclude the possibility that the decrease in the cytokines levels was simply due to the cytotoxicity of Platin-A, cell viability was evaluated. […]
RAW 264.7 cells were plated at a concentration of 10,000 cells/mL in 96 plates and allowed to grow overnight. […] The absorbance was recorded at 450 nm using a BioTek Synergy HT well plate reader.

PC3 cells = assay: Apoptosis detection by annexin V/PI assay; assay type: cell-based, Human; settings: 25 μM, 6 h
Description: High expression of COX-2 is found in various cancers, however, for PCa cell lines as well as tissue, contradictory results exist. We therefore tested anti-proliferative properties of Platin-A on androgen-responsive LNCaP and androgenunresponsive PC3 and DU145 PCa cells that differ in their malignant potentials. […] However, in LNCaP cells, Platin-A activity was better than an equimolar mixture of cisplatin and aspirin. In general, Pt(IV) compounds are less cytotoxic compared to their active Pt(II) form. […] To evaluate whether Platin-A-dependent inhibition of cancer cell proliferation is associated with apoptosis, Alexa Fluor® 488 annexin V/propidium iodide (PI) staining assay was carried out in PC3 cells and the data were analyzed by fluorescence assisted cell sorting. […]
PC3 cells were seeded at a density of 1×10^6 cells/mL on each well of a six well plate and allowed to grow overnight. […] Cell density was determined and cells were resuspended in 1× annexinVbinding buffer to 1×10^6 cells/mL preparing a sufficient volume to have 100 μL per assay. […] After the incubation period, 400 μL of 1× annexin-binding buffer was added to each sample, samples were gently mixed keeping the samples on ice, and the samples were analyzed on the flow cytometer immediately.

CC(=O)Oc1ccccc1C(=O)[O][Pt]([NH2])([NH2])([OH])([Cl])[Cl] [Platin-A]
LPS-induced IL-6 production (IL-6; preventive: pretreatment 10 μM 6 h, then LPS 12 h): significantly inhibited
levels of IL-6 (IL-6; therapeutic: LPS activated macrophages then 10 μM for 12 h): significantly reduced
level of IL-10 (IL-10): enhanced level of IL-10
apoptosis induction (annexin V/PI) (PC3 cells): High level of apoptosis was induced
